Reference: ChEMBL document CHEMBL1156031, “Tetrahydrocarbazole-based serotonin reuptake inhibitor/dopamine D2 partial agonists for the potential treatment of schizophrenia” (Bioorg Med Chem Lett, 2009)
The source made the active and inactive calls. No cut-off for these calls is given here.

What was measured:
D(2) dopamine receptor [1] = target: T1, D(2) dopamine receptor (Homo sapiens, UniProt P14416); assay: Displacement of [3H]spiperone from D2 receptor
[2] = target: Sodium-dependent serotonin transporter (Homo sapiens, UniProt P31645); assay: biochemical; type: cell-based, HEK293
[3] = target: T2, 5-hydroxytryptamine receptor 2B (Homo sapiens, UniProt P41595); assay: Agonist activity at human recombinant 5-HT2B receptor expressed in CHO-K1 cells assessed as increase in intracellular calcium level by FLIPR assay; type: functional, cell-based
[4] = Selectivity of Ki for human serotonin transporter to Ki for rat alpha1 adrenergic receptor
D(2) dopamine receptor [5] = target: T1, D(2) dopamine receptor; assay: Ratio of drug to quinpirole for agonist activity at D2 receptor assessed as change in intracellular cAMP level by cell based assay; type: functional
[6] = target: T2, 5-hydroxytryptamine receptor 2B; assay: Binding affinity to 5-HT2B receptor
[7] = target: T3, Adrenergic receptor alpha-1 (Rattus norvegicus, UniProt P15823+P23944+P43140); assay: Binding affinity to alpha1 adrenergic receptor in rat brain membrane by radioligand binding assay; type: cell membranes
T3 sequence (P15823 whole entry): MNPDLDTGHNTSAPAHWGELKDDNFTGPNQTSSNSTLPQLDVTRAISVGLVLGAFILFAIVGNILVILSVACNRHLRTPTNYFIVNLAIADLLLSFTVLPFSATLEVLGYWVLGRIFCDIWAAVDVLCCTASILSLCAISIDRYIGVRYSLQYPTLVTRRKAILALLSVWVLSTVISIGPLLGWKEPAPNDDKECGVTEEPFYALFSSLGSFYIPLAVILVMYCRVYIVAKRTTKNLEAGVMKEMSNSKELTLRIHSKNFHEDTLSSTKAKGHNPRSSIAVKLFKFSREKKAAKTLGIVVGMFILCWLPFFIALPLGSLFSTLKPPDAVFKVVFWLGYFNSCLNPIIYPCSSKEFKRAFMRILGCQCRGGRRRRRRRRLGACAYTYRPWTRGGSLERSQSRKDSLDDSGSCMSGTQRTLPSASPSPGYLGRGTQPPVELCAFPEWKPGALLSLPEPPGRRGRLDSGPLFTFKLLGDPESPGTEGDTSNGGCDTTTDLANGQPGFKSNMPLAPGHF
T3 sequence (P23944 whole entry): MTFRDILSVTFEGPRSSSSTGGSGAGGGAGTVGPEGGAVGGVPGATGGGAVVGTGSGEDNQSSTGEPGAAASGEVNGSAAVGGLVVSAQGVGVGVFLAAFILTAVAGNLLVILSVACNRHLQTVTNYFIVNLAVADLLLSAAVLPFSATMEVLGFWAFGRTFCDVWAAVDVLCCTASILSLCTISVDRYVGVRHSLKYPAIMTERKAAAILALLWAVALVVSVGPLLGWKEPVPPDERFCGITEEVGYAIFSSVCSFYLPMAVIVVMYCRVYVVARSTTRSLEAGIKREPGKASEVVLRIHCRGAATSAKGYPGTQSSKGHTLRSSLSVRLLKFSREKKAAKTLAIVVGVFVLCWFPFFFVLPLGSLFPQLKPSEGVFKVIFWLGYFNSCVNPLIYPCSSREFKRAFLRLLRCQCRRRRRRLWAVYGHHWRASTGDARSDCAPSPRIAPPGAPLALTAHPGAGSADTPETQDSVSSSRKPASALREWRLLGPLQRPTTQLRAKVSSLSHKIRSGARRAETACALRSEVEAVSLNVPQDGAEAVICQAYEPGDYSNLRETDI
T3 sequence (P43140 whole entry): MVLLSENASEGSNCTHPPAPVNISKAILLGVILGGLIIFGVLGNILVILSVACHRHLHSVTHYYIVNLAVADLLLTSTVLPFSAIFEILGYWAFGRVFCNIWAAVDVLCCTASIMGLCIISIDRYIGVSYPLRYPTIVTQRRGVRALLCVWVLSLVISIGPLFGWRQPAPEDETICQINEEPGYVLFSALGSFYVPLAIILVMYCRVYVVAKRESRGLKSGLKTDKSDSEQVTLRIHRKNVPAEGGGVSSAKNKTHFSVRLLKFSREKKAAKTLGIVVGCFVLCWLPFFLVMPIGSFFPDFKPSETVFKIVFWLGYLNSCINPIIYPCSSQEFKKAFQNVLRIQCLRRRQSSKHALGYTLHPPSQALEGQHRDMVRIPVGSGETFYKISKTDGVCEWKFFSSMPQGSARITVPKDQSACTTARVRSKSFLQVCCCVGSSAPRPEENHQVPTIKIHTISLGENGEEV

[8] = target: 5-hydroxytryptamine receptor 2A (Homo sapiens, UniProt P28223); assay: Agonist activity at 5-HT2A receptor; type: functional
Mus musculus [9] = assay: Antipsychotic activity in ip dosed AIC mouse model assessed as stereotype effects; type: functional
Mus musculus [10] = assay: Antipsychotic activity in ip dosed AIC mouse model assessed as climbing response; type: functional
Mus musculus [11] = assay: Inhibition of catalepsy in mouse at 10 mg/kg, ip after 90 mins; type: functional
Rattus norvegicus [12] = assay: Behavioral effect in CAR rat model assessed as increase in escape response at 10 mg/kg, ip; type: functional, organism-based; set-up: dose 10 mg/kg
Rattus norvegicus [13] = assay: Behavioral effect in CAR rat model assessed as increase in escape response at 10 mg/kg, po; type: functional, organism-based; set-up: dose 10 mg/kg
Rattus norvegicus [14] = assay: Behavioral effect in CAR rat model assessed as reduction of avoidance response at 10 mg/kg, po; type: functional, organism-based; set-up: dose 10 mg/kg
Rattus norvegicus [15] = assay: Behavioral effect in CAR rat model assessed as reduction of avoidance response at 10 mg/kg, ip; type: functional, organism-based; set-up: dose 10 mg/kg

Sodium-dependent serotonin transporter, sequence (P31645 whole entry): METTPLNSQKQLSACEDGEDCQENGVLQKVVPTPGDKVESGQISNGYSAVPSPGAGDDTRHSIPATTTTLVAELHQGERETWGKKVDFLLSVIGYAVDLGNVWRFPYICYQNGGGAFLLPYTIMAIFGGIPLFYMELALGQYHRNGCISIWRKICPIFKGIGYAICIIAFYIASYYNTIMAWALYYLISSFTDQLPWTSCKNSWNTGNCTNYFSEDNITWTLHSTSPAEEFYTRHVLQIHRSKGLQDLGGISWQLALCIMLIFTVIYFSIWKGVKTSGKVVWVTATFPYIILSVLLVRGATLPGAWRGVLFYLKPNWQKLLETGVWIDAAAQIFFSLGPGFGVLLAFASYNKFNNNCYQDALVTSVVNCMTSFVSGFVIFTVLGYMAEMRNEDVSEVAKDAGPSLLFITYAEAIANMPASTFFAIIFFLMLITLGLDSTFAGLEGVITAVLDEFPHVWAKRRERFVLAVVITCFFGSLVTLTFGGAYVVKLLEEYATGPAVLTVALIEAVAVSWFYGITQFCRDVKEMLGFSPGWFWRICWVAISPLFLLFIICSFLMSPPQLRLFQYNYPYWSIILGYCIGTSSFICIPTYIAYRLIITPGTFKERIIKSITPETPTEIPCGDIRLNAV
T2 sequence (P41595 whole entry): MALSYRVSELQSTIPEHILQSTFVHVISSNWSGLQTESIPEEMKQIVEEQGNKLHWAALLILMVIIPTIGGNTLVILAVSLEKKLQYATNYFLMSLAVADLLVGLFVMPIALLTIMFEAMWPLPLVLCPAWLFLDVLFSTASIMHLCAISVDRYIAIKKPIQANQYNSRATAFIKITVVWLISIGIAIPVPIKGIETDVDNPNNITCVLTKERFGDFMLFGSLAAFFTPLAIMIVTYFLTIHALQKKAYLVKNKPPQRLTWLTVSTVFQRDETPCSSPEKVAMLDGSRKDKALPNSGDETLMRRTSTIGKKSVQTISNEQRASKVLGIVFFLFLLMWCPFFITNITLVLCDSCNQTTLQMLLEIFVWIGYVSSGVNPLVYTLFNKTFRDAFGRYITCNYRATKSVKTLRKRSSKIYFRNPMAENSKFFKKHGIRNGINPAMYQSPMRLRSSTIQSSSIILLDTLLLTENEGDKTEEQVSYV
T1 sequence (P14416 whole entry): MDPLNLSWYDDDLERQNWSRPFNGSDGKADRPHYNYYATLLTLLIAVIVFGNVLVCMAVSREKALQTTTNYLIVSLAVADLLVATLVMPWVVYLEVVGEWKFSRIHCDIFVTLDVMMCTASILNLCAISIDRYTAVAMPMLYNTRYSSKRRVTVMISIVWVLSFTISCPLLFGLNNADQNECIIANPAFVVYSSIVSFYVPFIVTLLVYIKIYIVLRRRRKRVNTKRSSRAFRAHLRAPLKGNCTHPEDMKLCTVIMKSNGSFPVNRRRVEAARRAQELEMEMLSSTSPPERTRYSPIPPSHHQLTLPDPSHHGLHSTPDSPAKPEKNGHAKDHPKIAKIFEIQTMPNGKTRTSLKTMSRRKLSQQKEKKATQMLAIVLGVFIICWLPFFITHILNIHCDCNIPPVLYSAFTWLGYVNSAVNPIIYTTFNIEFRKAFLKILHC
5-hydroxytryptamine receptor 2A, sequence (P28223 whole entry): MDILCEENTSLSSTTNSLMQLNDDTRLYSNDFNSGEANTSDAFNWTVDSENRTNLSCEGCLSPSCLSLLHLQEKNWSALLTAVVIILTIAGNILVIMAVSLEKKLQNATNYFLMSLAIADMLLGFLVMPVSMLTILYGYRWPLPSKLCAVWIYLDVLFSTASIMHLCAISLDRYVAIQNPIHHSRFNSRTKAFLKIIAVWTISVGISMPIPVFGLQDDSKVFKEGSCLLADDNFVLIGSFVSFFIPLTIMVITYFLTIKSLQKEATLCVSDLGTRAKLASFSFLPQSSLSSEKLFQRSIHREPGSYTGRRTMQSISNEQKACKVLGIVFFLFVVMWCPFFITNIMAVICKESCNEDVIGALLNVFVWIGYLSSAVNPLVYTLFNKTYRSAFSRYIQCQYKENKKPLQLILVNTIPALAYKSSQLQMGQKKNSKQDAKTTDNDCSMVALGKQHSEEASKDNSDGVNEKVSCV

## O=C1Cc2c(ccc3c2OC[C@H](CNCC2CCc4c([nH]c5ccc(F)cc45)C2)O3)N1 (stereo not given in full)
D(2) dopamine receptor [1]
  Ki: 100 nM
[2]
  Ki: 25 nM

## O=c1[nH]c2cccc(N3C[C@H]4C[C@@H]3CN4CC3CCc4[nH]c5ccc(F)cc5c4C3)c2o1 (stereo not given in full) [listing 1 of 3 here]
[3]
  Activity: inactive
[4]
  Ratio Ki: 10
D(2) dopamine receptor [5]
  Ratio: 0.3

## O=C1Cc2c(ccc3c2OC[C@H](CNCCCC2CCc4c([nH]c5ccc(F)cc45)C2)O3)N1 (stereo in doubt; 23) [listing 1 of 2 here]
[3]
  Activity: inactive
[4]
  Ratio Ki: 10
D(2) dopamine receptor [5]
  Ratio: 0.3

## O=C1Cc2c(ccc3c2OC[C@H](CNCCCC2CCc4c([nH]c5ccc(F)cc45)C2)O3)N1 (stereo in doubt; 23) [listing 2 of 2 here]
D(2) dopamine receptor [1]
  Ki: 45 nM
[6]
  Ki: 400 nM
[2]
  Ki: 4 nM
[7]
  Ki: 22 nM

## O=c1[nH]c2cccc(N3CCN(CC4CCc5[nH]c6ccc(F)cc6c5C4)CC3)c2o1 (single isomer, unassigned; 31) [listing 1 of 2 here]
[8]
  Ki: 130 nM
Mus musculus [9]
  ED50: > 1 mg/kg
D(2) dopamine receptor [1]
  Ki: 17 nM
[6]
  Ki: 680 nM
Mus musculus [10]
  ED50: 0.5 mg/kg
[2]
  Ki: 22 nM
[7]
  Ki: 220 nM

## O=C1Cc2c(ccc3c2OC[C@H](CNCC2CCc4[nH]c5ccc(F)cc5c4C2)O3)N1 (stereo in doubt; 25) [listing 1 of 2 here]
[3]
  Activity: inactive
[4]
  Ratio Ki: 10
D(2) dopamine receptor [5]
  Ratio: 0.4

## O=C1Cc2c(cccc2N2CCN(CCC3CCc4[nH]c5ccc(F)cc5c4C3)CC2)N1 (stereo not given)
D(2) dopamine receptor [1]
  Ki: 15 nM
[2]
  Ki: 4700 nM

## O=c1[nH]c2cccc(N3CCN(CCCC4CCc5c([nH]c6ccc(F)cc56)C4)CC3)c2o1 (stereo not given)
D(2) dopamine receptor [1]
  Ki: 50 nM
[2]
  Ki: 62 nM

## O=C1Cc2c(ccc3c2OC[C@H](CNCC2CCc4[nH]c5ccc(F)cc5c4C2)O3)N1 (single isomer, unassigned) [listing 1 of 2 here]
[3]
  Activity: inactive
[4]
  Ratio Ki: 10
D(2) dopamine receptor [5]
  Ratio: 0.3

## O=C1Cc2c(cccc2N2CCN(CC3CCc4[nH]c5ccc(F)cc5c4C3)CC2)N1 (stereo not given)
D(2) dopamine receptor [1]
  Ki: 15 nM
[2]
  Ki: 1140 nM

## O=c1[nH]c2cccc(N3CCN(CC4CCc5[nH]c6ccc(F)cc6c5C4)CC3)c2o1 (single isomer, unassigned; 30)
D(2) dopamine receptor [1]
  Ki: 60 nM
[2]
  Ki: 32 nM

## O=c1[nH]c2cccc(OCC3CCN(CCC4CCc5[nH]c6ccc(F)cc6c5C4)CC3)c2o1 (stereo not given)
D(2) dopamine receptor [1]
  Ki: 720 nM
[2]
  Ki: 10 nM

## O=c1[nH]c2cccc(OCC3CCN(CC4CCc5[nH]c6ccc(F)cc6c5C4)CC3)c2o1 (stereo not given)
[3]
  Activity: inactive
D(2) dopamine receptor [1]
  Ki: 28 nM
[6]
  Ki: 110 nM
[2]
  Ki: 0.4 nM
D(2) dopamine receptor [5]
  Ratio: < 0.1
[7]
  Ki: 130 nM

## O=C1Cc2c(ccc3c2OC[C@H](CNCC2CCc4[nH]c5ccc(F)cc5c4C2)O3)N1 (stereo in doubt; 25) [listing 2 of 2 here]
[8]
  Ki: 2 nM
D(2) dopamine receptor [1]
  Ki: 3 nM
[6]
  Ki: 6 nM
[2]
  Ki: 1 nM
[7]
  Ki: 0.72 nM

## O=C1Cc2c(ccc3c2OC[C@H](CNCC2CCc4[nH]c5ccc(F)cc5c4C2)O3)N1 (single isomer, unassigned) [listing 2 of 2 here]
[8]
  Ki: 2 nM
D(2) dopamine receptor [1]
  Ki: 3 nM
[6]
  Ki: 130 nM
[2]
  Ki: 7 nM
[7]
  Ki: 0.5 nM

## O=c1[nH]c2cccc(CN3CCN(CC4CCc5[nH]c6ccc(F)cc6c5C4)CC3)c2o1 (stereo not given)
D(2) dopamine receptor [1]
  Ki: 120 nM
[2]
  Ki: 41 nM

## O=C1Cc2c(ccc3c2OC[C@H](CNCCCC2CCc4c([nH]c5ccc(F)cc45)C2)O3)N1 (stereo in doubt; 22) [listing 1 of 2 here]
[8]
  Ki: 6 nM
D(2) dopamine receptor [1]
  Ki: 50 nM
[6]
  Ki: 610 nM
[2]
  Ki: 15 nM
[7]
  Ki: 54 nM

## O=c1[nH]c2cccc(N3CCN(CC4CCc5c([nH]c6ccc(F)cc56)C4)CC3)c2o1 (stereo not given)
D(2) dopamine receptor [1]
  Ki: 220 nM
[2]
  Ki: 62 nM

## O=c1[nH]c2cccc(OC3CCN(CCC4CCc5[nH]c6ccc(F)cc6c5C4)CC3)c2o1 (stereo not given)
D(2) dopamine receptor [1]
  Ki: 310 nM
[2]
  Ki: 1200 nM

## O=c1[nH]c2cccc(N3C[C@H]4C[C@@H]3CN4CC3CCc4[nH]c5ccc(F)cc5c4C3)c2o1 (stereo not given in full) [listing 2 of 3 here]
D(2) dopamine receptor [1]
  Ki: 12 nM
[2]
  Ki: 460 nM

## O=c1[nH]c2cccc(N3C[C@H]4C[C@@H]3CN4CC3CCc4[nH]c5ccc(F)cc5c4C3)c2o1 (stereo not given in full) [listing 3 of 3 here]
[8]
  Ki: 1800 nM
Mus musculus [9]
  ED50: > 5 mg/kg
D(2) dopamine receptor [1]
  Ki: 14 nM
[6]
  Ki: 165 nM
Mus musculus [10]
  ED50: 2.3 mg/kg
[2]
  Ki: 8 nM
Mus musculus [11]; 1.5 h, route intraperitoneal
  inhibition in vivo at 10 mg/kg: 48%
[7]
  Ki: 65 nM

## O=c1[nH]c2cccc(N3CCN(CC4CCc5[nH]c6ccc(F)cc6c5C4)CC3)c2o1 (single isomer, unassigned; 31) [listing 2 of 2 here]
Rattus norvegicus [12]
  Activity: Active
[3]
  Activity: inactive
Rattus norvegicus [13]
  Activity: Active
Rattus norvegicus [14]
  Activity: Active
D(2) dopamine receptor [5]
  Ratio: 0.6
Rattus norvegicus [15]
  Activity: Active
Mus musculus [11]
  Activity: inactive

## O=c1[nH]c2cccc(OC3CCN(CC4CCc5[nH]c6ccc(F)cc6c5C4)CC3)c2o1 (stereo not given)
D(2) dopamine receptor [1]
  Ki: 140 nM
[2]
  Ki: 3 nM

## O=C1Cc2c(ccc3c2OC[C@H](CNCCC2CCc4[nH]c5ccc(F)cc5c4C2)O3)N1 (stereo not given in full) [listing 1 of 2 here]
D(2) dopamine receptor [1]
  Ki: 24 nM
[2]
  Ki: 21 nM

## O=C1Cc2c(ccc3c2OC[C@H](CNCCC2CCc4[nH]c5ccc(F)cc5c4C2)O3)N1 (stereo not given in full) [listing 2 of 2 here]
D(2) dopamine receptor [1]
  Ki: 24 nM
[2]
  Ki: 24 nM

## O=C1Cc2c(ccc3c2OC[C@H](CNCCCC2CCc4c([nH]c5ccc(F)cc45)C2)O3)N1 (stereo in doubt; 22) [listing 2 of 2 here]
[3]
  Activity: inactive
[4]
  Ratio Ki: 10
D(2) dopamine receptor [5]
  Ratio: 0.3

## O=C1Cc2c(ccc3c2OC[C@H](CNCCC2CCc4c([nH]c5ccc(F)cc45)C2)O3)N1 (stereo not given in full)
D(2) dopamine receptor [1]
  Ki: 36 nM
[2]
  Ki: 5200 nM
